Assay results published in US10028960B2, “Pyrimidine compounds as JAK kinase inhibitors” (THERAVANCE BIOPHARMA R&D IP, LLC, priority 2016, dated 2018).

Tests used:
[1] = system: IL-13 induced STAT6 phosphorylation in HT-29 human colorectal adenocarcinoma cells; assay: Cellular JAK potency assay: inhibition of IL-13 induced STAT6 phosphorylation; format: cell-based; conditions: IL-13 induced STAT6 phosphorylation, HT-29 cells; for IC50: Homo sapiens, read-out: HT-29 (pIC50) (converted)
Procedure: The potency of test compounds for inhibition of the JAK-dependent cytokine interleuken-13 (IL-13) was assessed by measuring IL-13 (IL-13, R&D Systems) induced STAT6 phosphorylation in HT-29 human colorectal adenocarcinoma cells (ATCC).
The anti-STAT6 antibody (Cell Signaling Technologies) was conjugated to AlphaScreen acceptor beads (Perkin Elmer), while the anti-pSTAT6 (pTyr641) antibody (Cell Signaling Technologies) was biotinylated using EZ-Link Sulfo-NHS-Biotin (Thermo Scientific).
HT-29 cells were grown at 37° C. in a 5% CO2 humidified incubator in McCoy's 5a Modified medium (ATCC) supplemented with 10% FBS (Hyclone), 100 U/mL penicillin, 100 μg/mL streptomycin (Life Technologies), and 2 mM GlutaMAX (Life Technologies). On day 1 of the assay, cells were seeded at a 7,500 cells/well density in white poly-D-lysine-coated 384-well plates (Corning) with 25 μL medium, and were allowed to adhere overnight in the incubator. On day 2 of the assay, the medium was removed and replaced with 12 μL of assay buffer (Hank's Balanced Salt Solution/HBSS, 25 mM HEPES, and 1 mg/ml bovine serum albumin/BSA) containing dose-responses of test compounds. Compounds were serially diluted in DMSO and then diluted another 1000-fold in media to bring the final DMSO concentration to 0.1%. Cells were incubated with test compounds at 37° C. for 1 h, and followed by the addition of 12 μL of pre-warmed IL-13 (12 ng/ml in assay buffer) for stimulation. After incubating at 37° C. for 30 min, the assay buffer (containing compound and IL-13) was removed, and 10 μL of cell lysis buffer (25 mM HEPES, 0.1% SDS, 1% NP-40, 5 mM MgCl2, 1.3 mM EDTA, 1 mM EGTA, and supplement with Complete Ultra mini protease inhibitors and PhosSTOP from Roche Diagnostics). The plates were shaken at ambient temperature for 30 min before the addition of detection reagents. A mixture of biotin-anti-pSTAT6 and anti-STAT6 conjugated acceptor beads was added first and incubated at ambient temperature for 2 h, followed by the addition of streptavidin conjugated donor beads (Perkin Elmer). After a minimum of 2 h incubation, the assay plates were read on the EnVision plate reader.
Results were expressed as the negative logarithm of the IC50 value, pIC50.

JAK1 = JAK1 (Homo sapiens (Human), UniProt P23458); assay: LanthaScreen JAK biochemical assay, JAK1; conditions: for Ki: read-out: JAK 1 (pKi) (converted)
Procedure: A panel of four LanthaScreen JAK biochemical assays (JAK1, 2, 3 and Tyk2) were carried in a common kinase reaction buffer (50 mM HEPES, pH 7.5, 0.01% Brij-35, 10 mM MgCl2, and 1 mM EGTA). Recombinant GST-tagged JAK enzymes and a GFP-tagged STAT1 peptide substrate were obtained from Life Technologies.

Chain of JAK1 (P23458 whole entry): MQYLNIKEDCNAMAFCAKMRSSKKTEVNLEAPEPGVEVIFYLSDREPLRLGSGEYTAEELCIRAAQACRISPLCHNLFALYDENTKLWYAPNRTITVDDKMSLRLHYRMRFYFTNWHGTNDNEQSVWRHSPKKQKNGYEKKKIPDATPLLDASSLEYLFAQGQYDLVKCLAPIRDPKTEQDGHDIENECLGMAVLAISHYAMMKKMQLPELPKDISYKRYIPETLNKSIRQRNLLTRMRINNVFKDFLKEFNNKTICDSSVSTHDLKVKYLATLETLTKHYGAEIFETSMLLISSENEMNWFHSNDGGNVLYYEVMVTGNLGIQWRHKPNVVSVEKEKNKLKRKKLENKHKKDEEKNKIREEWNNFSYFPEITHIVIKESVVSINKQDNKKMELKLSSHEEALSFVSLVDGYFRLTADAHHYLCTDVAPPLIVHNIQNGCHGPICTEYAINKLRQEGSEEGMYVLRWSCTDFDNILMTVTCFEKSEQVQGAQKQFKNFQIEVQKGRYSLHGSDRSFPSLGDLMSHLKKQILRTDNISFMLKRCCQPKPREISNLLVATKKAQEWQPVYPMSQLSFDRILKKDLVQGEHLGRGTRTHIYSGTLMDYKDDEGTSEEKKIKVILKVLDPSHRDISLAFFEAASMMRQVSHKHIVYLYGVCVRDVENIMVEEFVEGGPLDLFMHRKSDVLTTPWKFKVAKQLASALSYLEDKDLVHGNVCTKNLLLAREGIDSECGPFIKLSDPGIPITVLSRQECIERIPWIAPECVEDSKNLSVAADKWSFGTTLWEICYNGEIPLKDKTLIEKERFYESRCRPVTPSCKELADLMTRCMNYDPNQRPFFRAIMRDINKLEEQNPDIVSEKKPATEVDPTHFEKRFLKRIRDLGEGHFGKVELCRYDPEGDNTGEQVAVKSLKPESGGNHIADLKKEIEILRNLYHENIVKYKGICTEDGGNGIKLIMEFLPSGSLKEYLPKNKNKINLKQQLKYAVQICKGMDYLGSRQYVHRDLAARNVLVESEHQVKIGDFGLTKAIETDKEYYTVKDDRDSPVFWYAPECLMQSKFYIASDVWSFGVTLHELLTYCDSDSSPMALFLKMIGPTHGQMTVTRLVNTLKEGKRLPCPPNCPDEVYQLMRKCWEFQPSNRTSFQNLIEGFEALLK

Work on `COc1cc(Nc2cc(CO)[nH]n2)nc(N[C@@H]2C[C@H]3CC[C@@H](C2)N3S(=O)(=O)N2CC(C#N)C2)n1` [Example 1-2] yielded an IC50 [1] of 200 to 1000 nM and a Ki (JAK1) of 0.1 to 1 nM.

For `COc1cc(Nc2cc(CO)[nH]n2)nc(N(C)[C@@H]2C[C@H]3CCC[C@@H](C2)N3S(=O)(=O)c2cncc(F)c2)n1` [Example 1-19, (3-((2-(((1R,3s,5S)-9-((5-fluoropyridin-3-yl)sulfonyl)-9-azabicyclo[3.3.1]nonan-3-yl)(methyl)amino)-6-methoxypyrimidin-4-yl)amino)-1H-pyrazol-5-yl)methanol], the “HT-29 (pIC50)” value [1] was “A (A represents a pIC50 value≥7.5 (IC50≤32 nM))” and the “JAK 1 (pKi)” value (JAK1) was “B (B represents a pKi value between 9 and 10 (Ki between 1 nM and 0.1 nM))”.

With `COc1cc(Nc2cc(CO)[nH]n2)nc(N[C@@H]2C[C@H]3CC[C@@H](C2)N3Cc2ccncc2)n1` [Example 2-1] the “HT-29 (pIC50)” value [1] was “C (C represents a pIC50 value between 6 and 6.7 (IC50 between 1 μM and 200 nM))” and the “JAK 1 (pKi)” value (JAK1) was “C (C represents a pKi value between 8 and 9 (Ki between 10 nM and 1 nM))”.

`COc1cc(Nc2cc(CO)[nH]n2)nc(N[C@@H]2C[C@H]3CCC[C@@H](C2)N3S(=O)(=O)N2CC(C#N)C2)n1` [Example 1-6, 1-(((1R,3s,5S)-3-((4-((5-(hydroxymethyl)-1H-pyrazol-3-yl)amino)-6-methoxypyrimidin-2-yl)amino)-9-azabicyclo[3.3.1]nonan-9-yl)sulfonyl)azetidine-3-carbonitrile] was tested, and the “HT-29 (pIC50)” value [1] was “B (B represents a pIC50 value between 6.7 and 7.5 (IC50 between 200 nM and 32 nM))” and the “JAK 1 (pKi)” value (JAK1) was “A (A represents a pKi value≥10 (Ki≤0.1 nM))”.

In the case of `COc1cc(Nc2cc(CO)[nH]n2)nc(N[C@@H]2C[C@H]3CCC[C@@H](C2)N3Cc2ccnc(C#N)c2)n1` [Example 2-3, 4-(((1R,3s,5S)-3-((4-((5-(hydroxymethyl)-1H-pyrazol-3-yl)amino)-6-methoxypyrimidin-2-yl)amino)-9-azabicyclo[3.3.1]nonan-9-yl)methyl)picolinonitrile], the “HT-29 (pIC50)” value [1] is reported as “B (B represents a pIC50 value between 6.7 and 7.5 (IC50 between 200 nM and 32 nM))” and the “JAK 1 (pKi)” value (JAK1) is reported as “B (B represents a pKi value between 9 and 10 (Ki between 1 nM and 0.1 nM))”.

With `COc1cc(Nc2cc(CO)[nH]n2)nc(N[C@@H]2C[C@H]3CCC[C@@H](C2)N3Cc2ccncc2)n1` [Example 2-2] the “HT-29 (pIC50)” value [1] was “B (B represents a pIC50 value between 6.7 and 7.5 (IC50 between 200 nM and 32 nM))” and the “JAK 1 (pKi)” value (JAK1) was “B (B represents a pKi value between 9 and 10 (Ki between 1 nM and 0.1 nM))”.

In the case of `COc1cc(Nc2cc(CO)[nH]n2)nc(N[C@@H]2C[C@H]3CC[C@@H](C2)N3S(=O)(=O)c2cccnc2)n1` [Example 1-3], the IC50 [1] is reported as 200 to 1000 nM and the Ki (JAK1) is reported as 1 to 10 nM.

With `COc1cc(Nc2cc(CO)[nH]n2)nc(N[C@@H]2C[C@H]3CCC[C@@H](C2)N3Cc2cccnc2)n1` [Example 2-4, (3-((6-methoxy-2-(((1R,3s,5S)-9-(pyridin-3-ylmethyl)-9-azabicyclo[3.3.1]nonan-3-yl)amino)pyrimidin-4-yl)amino)-1H-pyrazol-5-yl)methanol] the “HT-29 (pIC50)” value [1] was “B (B represents a pIC50 value between 6.7 and 7.5 (IC50 between 200 nM and 32 nM))” and the “JAK 1 (pKi)” value (JAK1) was “B (B represents a pKi value between 9 and 10 (Ki between 1 nM and 0.1 nM))”.

In the case of `COc1cc(Nc2cc(CO)[nH]n2)nc(N[C@@H]2C[C@H]3CCC[C@@H](C2)N3S(=O)(=O)N2CCC2)n1` [Example 1-5, (3-((2-(((1R,3s,5S)-9-(azetidin-1-ylsulfonyl)-9-azabicyclo[3.3.1]nonan-3-yl)amino)-6-methoxypyrimidin-4-yl)amino)-1H-pyrazol-5-yl)methanol], the “HT-29 (pIC50)” value [1] is reported as “B (B represents a pIC50 value between 6.7 and 7.5 (IC50 between 200 nM and 32 nM))” and the “JAK 1 (pKi)” value (JAK1) is reported as “B (B represents a pKi value between 9 and 10 (Ki between 1 nM and 0.1 nM))”.

In the case of `COc1cc(Nc2cc(CO)[nH]n2)nc(N(C)[C@@H]2C[C@H]3CCC[C@@H](C2)N3Cc2ccnc(C#N)c2)n1` [Example 2-8, 4-(((1R,3s,5S)-3-((4-((5-(hydroxymethyl)-1H-pyrazol-3-yl)amino)-6-methoxypyrimidin-2-yl)(methyl)amino)-9-azabicyclo[3.3.1]nonan-9-yl)methyl)picolinonitrile], the “HT-29 (pIC50)” value [1] is reported as “B (B represents a pIC50 value between 6.7 and 7.5 (IC50 between 200 nM and 32 nM))” and the “JAK 1 (pKi)” value (JAK1) is reported as “B (B represents a pKi value between 9 and 10 (Ki between 1 nM and 0.1 nM))”.

For `COc1cc(Nc2cc(CO)[nH]n2)nc(N[C@@H]2C[C@H]3CCC[C@@H](C2)N3S(=O)(=O)c2ccccc2)n1` [Example 1-8, (3-((6-methoxy-2-(((1R,3s,5S)-9-(phenylsulfonyl)-9-azabicyclo[3.3.1]nonan-3-yl)amino)pyrimidin-4-yl)amino)-1H-pyrazol-5-yl)methanol], the “HT-29 (pIC50)” value [1] was “A (A represents a pIC50 value≥7.5 (IC50≤32 nM))” and the “JAK 1 (pKi)” value (JAK1) was “A (A represents a pKi value≥10 (Ki≤0.1 nM))”.

In the case of `COc1cc(Nc2cc(CO)[nH]n2)nc(N(C)[C@@H]2C[C@H]3CCC[C@@H](C2)N3S(=O)(=O)CC2CC2)n1` [Example 1-18, (3-((2-(((1R,3s,5S)-9-((cyclopropylmethyl)sulfonyl)-9-azabicyclo[3.3.1]nonan-3-yl)(methyl)amino)-6-methoxypyrimidin-4-yl)amino)-1H-pyrazol-5-yl)methanol], the “JAK 1 (pKi)” value (JAK1) is reported as “B (B represents a pKi value between 9 and 10 (Ki between 1 nM and 0.1 nM))”.

Work on `COc1cc(Nc2cc(CO)[nH]n2)nc(N[C@@H]2C[C@H]3CC[C@@H](C2)N3S(=O)(=O)c2ccccc2)n1` [Example 1-4] yielded a Ki (JAK1) of 10 to 31.6 nM.

For `COc1cc(Nc2cc(CO)[nH]n2)nc(N[C@@H]2C[C@H]3CC[C@@H](C2)N3S(=O)(=O)N2CCC2)n1` [Example 1-1], the IC50 [1] was 31.6 to 200 nM and the Ki (JAK1) was 1 to 10 nM.

With `COc1cc(Nc2cc(CO)[nH]n2)nc(N[C@@H]2C[C@H]3CCC[C@@H](C2)N3C(=O)C(F)F)n1` [Example 3-1, 2,2-difluoro-1-((1R,3s,5S)-3-((4-((5-(hydroxymethyl)-1H-pyrazol-3-yl)amino)-6-methoxypyrimidin-2-yl)amino)-9-azabicyclo[3.3.1]nonan-9-yl)ethan-1-one] the “JAK 1 (pKi)” value (JAK1) was “B (B represents a pKi value between 9 and 10 (Ki between 1 nM and 0.1 nM))”.

Molecule `COc1cc(Nc2cc(CO)[nH]n2)nc(N(C)C2C[C@H]3CCC[C@@H](C2)N3C(=O)C(F)F)n1` (stereo partly drawn) [Example 9, 2,2-difluoro-1-((1R,3s,5S)-3-((4-((5-(hydroxymethyl)-1H-pyrazol-3-yl)amino)-6-methoxypyrimidin-2-yl)(methyl)amino)-9-azabicyclo[3.3.1]nonan-9-yl)ethan-1-one] has an IC50 [1] of 31.6 to 200 nM.

With `COc1cc(Nc2cc(CO)[nH]n2)nc(N[C@@H]2C[C@H]3CCC[C@@H](C2)N3S(=O)(=O)CC2CC2)n1` [Example 1-10, (3-((2-(((1R,3s,5S)-9-((cyclopropylmethyl)sulfonyl)-9-azabicyclo[3.3.1]nonan-3-yl)amino)-6-methoxypyrimidin-4-yl)amino)-1H-pyrazol-5-yl)methanol] the “JAK 1 (pKi)” value (JAK1) was “B (B represents a pKi value between 9 and 10 (Ki between 1 nM and 0.1 nM))”.

In the case of `COc1cc(Nc2cc(CO)[nH]n2)nc(N[C@@H]2C[C@H]3CCC[C@@H](C2)N3S(=O)(=O)c2cncc(F)c2)n1` [Example 1-7, (3-((2-(((1R,3s,5S)-9-((5-fluoropyridin-3-yl)sulfonyl)-9-azabicyclo[3.3.1]nonan-3-yl)amino)-6-methoxypyrimidin-4-yl)amino)-1H-pyrazol-5-yl)methanol], the “JAK 1 (pKi)” value (JAK1) is reported as “B (B represents a pKi value between 9 and 10 (Ki between 1 nM and 0.1 nM))”.

`COc1cc(Nc2cc(CO)[nH]n2)nc(N[C@@H]2C[C@H]3CCC[C@@H](C2)N3Cc2ccc(C#N)nc2)n1` [Example 6, 5-(((1R,3s,5S)-3-((4-((5-(hydroxymethyl)-1H-pyrazol-3-yl)amino)-6-methoxypyrimidin-2-yl)amino)-9-azabicyclo[3.3.1]nonan-9-yl)methyl)picolinonitrile] showed a Ki (JAK1) of 0.1 to 1 nM.
